Patent US20240271102A1, “METHODS FOR ENGINEERING AND USE OF CILIATED ORGANOIDS HAVING NATIVE-LIKE, APICAL-OUT POLARITY” (Carnegie Mellon University, priority 2021, published 2024)

Tests used:
Assay type in all cases: cell-based, human
[1] = tested on: apical-out airway organoids (AOAOs); test: AOAO rotation / angular velocity of […]-embedded organoids (computer vision tracking)
Procedure: © embedding of AOAOs: Mature AOAOs at day-21 to day-28 of differentiation were collected together and embedded in […]® matrices. For […]® embedding, collected AOAOs were resuspended in 40% (vol/vol) GFR-[…]® in differentiation medium, which was kept on a heat plate set to 37° C. for 10 minutes to enable effective gelation. Upon matrix gelation, differentiation medium was added to the top of the AOAO-containing gel matrices. All matrix-embedded AOAOs were maintained at 37° C. with 5% CO2. The next day, 30-second video recordings of AOAOs were captured using EVOS FL Auto 2 Imaging System. […] The distance covered by each correspondence was measured and converted to the rotational velocity (Sun et al., in 2010 IEEE Computer Society Conference on Computer Vision and Pattern Recognition, 2432-2439, 2010). […] The difference in rotational and angular velocity was quantified by calculating the mean normalized deviation of velocity (rotational and angular) from the mean (FIG. 19E) using the following equation: Treating AOAOs with Paclitaxel or EHNA for angular velocity analysis: Mature AOAOs (day-21 to day-28 of differentiation) were embedded in […]® for two days before treatment with desired chemical inhibitors of cilia motility. […]

[2] = tested on: apical-out airway organoids (AOAOs); test: Cilia beating frequency (CBF) by kymograph analysis
Procedure: Imaging the AOAO cilia beating for kymographs generation and cilia beating frequency (CBF) calculation: Mature AOAOs (day-21 to day-28 of differentiation) were transferred to a 1.5-mL Eppendorf tube and kept on ice. Cold collagen type 1 was neutralized with the neutralization solution, added to the organoids at a final concentration of 2 mg/mL, and the entire AOAO-collagen mixture was transferred to the glass bottom region of a MatTek dish. The MatTek dish containing organoids in collagen was kept on ice for additional 10 minutes until the organoids settled down to the bottom of the dish. The MatTek dish was then placed on a heat plate set to 37° C. for 10 minutes. 1 mL of differentiation medium was placed in the dish before capturing video recording of cilia beating using on a Zeiss AxioObserver Z1 microscope with a 100×, 1.45 NA objective and pco.edge 5.5 camera. The high-speed video recordings of cilia beating were preprocessed using the previously described method to smoothen noise and variations in contrast. Additionally, the Contrast Limited Adaptive Histogram Equalization (CLAHE) function in Python v. […] The normal vector with respect to the organoid surface for each region of interest was calculated. […] The peaks in the kymograph were counted and divided by the duration of the video to obtain the CBF value for the organoid. […]

NHBE cells = test: Spheroid formation of NHBEs on U-bottom cell repellent surface; conditions: 10 μM Y27632 in differentiation medium at initial seeding, day 1
Procedure: Mucociliary differentiation of NHBEs with apical-out polarity was then carried out. Once the cells reached about 75% confluency, the medium was aspirated and cells were rinsed once with DPBS. Trypsin-EDTA (0.25%) was added and incubated at 37° C. After all the cells had lifted, complete RPMI medium was added to neutralize the trypsin. The cell suspension was transferred into a 15 mL centrifuge tube, which was then centrifuged at 220×g for 5 minutes at room temperature. The cell pellet was resuspended to a cell density of 5000 cells/mL in differentiation medium containing 10 μM of Y27632. Aliquots (100 μL) of the cell suspension were then transferred to each well of a 96-well cell-repellent microplate. 50 μL of the media were pipetted out from each well and replaced with fresh differentiation medium every other day. Apical-out organoid formation was examined with different starting NHBE cell numbers (1000, 500, 200, 100, 50, and 20 cells per well) on a 96-well U-bottom cell repellent surface. Studies also were conducted to test whether the addition of 10 μM Y27632 into the differentiation medium for initial seeding improved cell viability and spheroid formation (FIGS. 3A-3F and 4A-4F). […] It is noted that in other experiments, however, a density of 1000 cells per well did support favorable spheroid formation.

[3] = tested on: apical-out airway organoids (AOAOs); test: MUC5AC goblet cell immunofluorescence staining of apical-out airway organoids
Procedure: Differentiation of airway basal cells into apical-out airway organoids: Human ABSCs (P2) were trypsinized and resuspended (5000 cells/ml) in differentiation medium ([…]™-ALI Medium) supplemented with 10 μM Y27632. 100 μL of resuspended hABSCs were placed per well in a 96-well cell-repellent microplate (GreinerBio-One, 655970). The cultures were maintained at 37° C. with 5% CO2 for 21-28 days. […]

CCCCCC[C@@H]([C@@H](C)O)n1cnc2c(N)ncnc21 (racemic) [EHNA, erythro-9-(2-hydroxy-3-nonyl)adenine]
change in organoid angular velocity ([1]; EHNA 0, 0.1, 0.3 and 1 mM, 2 hours, mature AOAOs): dose-dependent reduction in organoid angular velocity | cilia beating frequency (CBF) ([2]; 1 mM EHNA, 2 hours): inhibitory effect

C[C@@H](N)[C@H]1CC[C@H](C(=O)Nc2ccncc2)CC1 [Y27632]
spheroid formation with versus without Y27632 (NHBE cells): no significant differences

CC(=O)O[C@H]1C(=O)[C@@]2(C)[C@H]([C@H](OC(=O)c3ccccc3)[C@]3(O)C[C@H](OC(=O)[C@H](O)[C@@H](NC(=O)c4ccccc4)c4ccccc4)C(C)=C1C3(C)C)[C@]1(OC(C)=O)CO[C@@H]1C[C@@H]2O [paclitaxel, Paclitaxel]
organoid angular velocity over time ([1]; paclitaxel 20 μM, monitored periodically for 24 hours): progressive reduction of organoid angular velocity | cilia beating frequency (CBF) ([2]; paclitaxel 20 μM, 24 hours): dramatically reduced CBF

IL-13: pro-inflammatory cytokine interleukin-13
goblet cells (MUC5AC+) in Day 21 AOAOs ([3]; IL-13 5 ng/mL in differentiation medium during the entire differentiation): massive induction of goblet cells | goblet cells (MUC5AC expression) ([3]; IL-13 at concentration as low as 1 ng/mL): exhibited goblet cells
